# Reference: patent publication US5807869A, “Quinoline derivatives, their production and use” (Takeda Chemical Industries, Ltd., priority 1995, dated 1998)
# Where a name gives a salt, the structure may show the parent alone.
# Biological target: T1, human GnRH receptor (Homo sapiens, UniProt P30968)
# T1 construct: expressed in transfected cells; host or cells: CHO (Chinese Hamster Ovary) cells
# T1 sequence (P30968 1-328): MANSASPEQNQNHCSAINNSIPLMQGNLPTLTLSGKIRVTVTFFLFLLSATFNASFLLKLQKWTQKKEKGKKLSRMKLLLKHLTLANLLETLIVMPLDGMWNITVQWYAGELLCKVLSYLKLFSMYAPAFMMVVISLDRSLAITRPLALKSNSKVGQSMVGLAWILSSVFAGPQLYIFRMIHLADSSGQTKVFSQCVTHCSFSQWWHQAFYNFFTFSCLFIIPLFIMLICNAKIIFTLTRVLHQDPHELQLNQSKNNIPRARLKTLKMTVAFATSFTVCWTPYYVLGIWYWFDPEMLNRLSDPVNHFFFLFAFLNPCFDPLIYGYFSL
# Test: 125I-leuprorelin binding inhibition, membrane fraction of CHO cells expressing human GnRH receptors
# Details: CHO cell membrane fraction, 25° C., 60 minutes, Hill plot, read-out: 125I-leuprorelin binding inhibitory rate IC50 value
smiles,measurement,value
"CCOC(=O)c1cn(Cc2c(F)cccc2F)c2cc(-c3ccc(NC(=O)CC)cc3)c(CN(C)Cc3ccccc3)cc2c1=O [Example 3, 6-(N-benzyl-N-methylaminomethyl)-1,4-dihydro-1-(2,6-difluorobenzyl)-7-(4-propionylaminophenyl)-4-oxoquinoline-3-carboxylic acid ethyl ester hydrochloride]",IC50,50 nM
